Assays:
Aβ1-40 = biological target: T1, Aβ1-40 (Homo sapiens, UniProt P05067); test: Kinetic Thioflavin T (ThT) aggregation assay of Aβ1-40; type: biochemical; conditions: 20 μM Aβ1-40, 4 μM ThT, pH 7.4, 37° C., kinetic ThT assay
T1 construct: Aβ^1-40 (AnaSpec, San Jose, Calif., lots 14212, 34862 and 34889); purchased AnaSpec, San Jose, Calif
Method: Aβ^1-40 (1.0 mg) was pre-treated in a 1.5 mL microfuge tube with 1,1,1,3,3,3-hexafluoroisopropanol (HFIP, 1 mL) and sonicated for 20 min. to disassemble any pre-formed Aβ aggregates. The HFIP was removed with a stream of argon and the Aβ dissolved in Tris base (5.8 mL, 20 mM, pH 10.5). The pH was adjusted to 7.4 with concentrated HCl and the solution filtered using a syringe filter (0.2 μm). This solution was used for circular dichroism studies or diluted with an equal volume of 8 μM Thioflavin T (ThT) in Tris-HCl (20 mM, pH 7.4, 300 mM NaCl) for the ThT aggregation assay.
(§1) Aliquots (200 μL) of Aβ^1-40, Aβ^1-42, tau441 or α-synuclein with ThT or ThS were added to wells of a black polystyrene 96-well plate, followed by 2 μL of a compound in DMSO (various concentrations), or DMSO alone (controls). For α-synuclein, sodium dodecyl sulfate solution (2.0 μL, 30 mM) was also added to each well to induce aggregation. Incubations were performed in triplicate and were taken to contain 20 μM Aβ^1-40 or Aβ^1-42, 6 μM tau441 or 4 μM α-synuclein. Plates were covered with clear polystyrene lids and incubated at 37° C. in a GENios microplate reader obtained from Tecan Group Limited, Mannedorf, Zurich. For Aβ^1-40, tau441 and α-synuclein, fluorescence readings (λex=450 nm, λem=480 nm) were taken every 15 min., after first shaking at high intensity for 15 sec. and allowing to settle for 10 sec. before each reading. For Aβ^1-42, readings were taken every 5 min.
The absorbance of each compound was measured under the conditions used during testing, though on ten times the scale (2 mL), to ensure no significant quenching interfered with the assay. This step was also used to identify whether compounds were completely soluble under testing conditions.
FIG. 1 depicts the inhibition of Aβ^1-40 aggregation, as measured by Thioflavin T (ThT) fluorescence, by directly-linked 3,3′-bis-indolyl compounds 0c-i (A), other bis-indoles (B), aza-indole-containing compounds (C), indole-phenols (D), indole-5-carboxylic acid-containing bi-aromatics (E), and naphthol-containing bi-aromatics (F). Aggregation conditions: 20 μM Aβ^1-40 incubated in covered black 96-well polystyrene microplates with 4 μM ThT, pH 7.4, Tris-HCl (20 mM), 150 mM NaCl, 1% DMSO. Compound concentrations are 200 μM (A,B, except where otherwise noted), 100 μM (E), 20 μM (F), or as indicated (C,D). Plates heated at 37° C. in Tecan Genios microplate reader. All incubations performed in triplicate. Prior to experiment, Aβ^1-40 pretreated with 1,1,1,3,3,3-hexafluoroisopropanol (HFIP). Fluorescence readings: fluorescence measured every 15 min. (λex=450 nm, λem=480 nm) after shaking for 15 sec. and pausing 10 sec. before taking measurement. Values are the mean of three replicates. Error bars, omitted for clarity in (B), represent standard deviation of the mean.

tau441 = biological target: T2, tau441 (Homo sapiens, UniProt P10636); test: Kinetic Thioflavin S (ThS) assay of tau441 aggregation; type: biochemical; conditions: for tau aggregation in the absence of heparin inducer: heparin omitted
T2 construct: (expression construct); host or cells: E. coli BL21 D3
Method: The tau441 expression construct [L Buee et al. (2000). Brain Research Reviews 33:95-130] was purchased (Bioclon Inc., San Diego, Calif.) already transformed in BL21 D3 bacterial cells (Novagen/EMD Biosciences) for protein expression. Cells were grown and induced with IPTG according to Novagen's protocol. To lyse cells, Cellytic B reagent (Sigma) was used with lysozyme protease inhibitors (Sigma) and benzonase (Novagen/EMD Biosciences), according to manufacturer's methods. Lysate was cleared by centrifugation for 20 min at 10,000 RPM (SS34 rotor, Sorvall RC2b centrifuge) at 4° C. Protein was purified from the soluble fraction. Once purified, tau441 was stored at −78° C. as frozen aliquots (8.3 mg/mL, 60 μL) in Tris-HCl (50 mM, pH 7.4) until used.
Frozen aliquots of tau441 (8.3 mg/mL, 60 μL) in Tris-HCl (50 mM, pH 7.4) were allowed to thaw at room temperature (RT) before being diluted with Tris-HCl (2.64 mL, 50 mM, pH 7.4) containing dithiothreitol (DTT, 1 mM) to prevent disulfide bonds and NaN3 (50 μM) to prevent bacterial growth. After allowing to stand at RT for 1 h, Thioflavin S (ThS) was added (2.5 μL, 10.8 mM), followed by the aggregation inducer heparin (20 μL, 1.08 g/mL).
as §1
Aggregation conditions: tau441 at a concentration of either 10 μM (A) or 4 μM (B,C,D,E) was incubated in covered black 96-well polystyrene microplates alone or with 100 (A) or 50 μM compound (B,C,D,E), 5 μM ThS, pH 7.4, Tris-HCl (50 mM) containing NaN3 (50 μM), and either 1% MeOH (A) or 1% DMSO (B,C,D,E). Plates were heated at 37° C. in a Tecan GENios microplate reader. All incubations performed in triplicate, except for compound 0c in (A), which had n=1. Fluorescence readings: fluorescence measured every 15 min. (λex=450 nm, λem=480 nm) after shaking for 15 sec. and pausing 10 sec. before taking measurement. Values are the mean of three replicates. Error bars, sometimes not visible due to small size, represent standard deviation of the mean.
Aggregation conditions: tau441 at a concentration of 4 μM was incubated in covered black 96-well polystyrene microplates alone or with 50 μM (A,B,C) or 1 mM compound (D), 5 μM ThS, pH 7.4, Tris-HCl (50 mM) containing NaN3 (50 μM), and 1% DMSO. Plates were heated at 37° C. in a Tecan GENios microplate reader. All incubations performed in triplicate. Fluorescence readings: fluorescence measured every 15 min. (λex=450 nm, λem=480 nm) after shaking for 15 sec. and pausing 10 sec. before taking measurement. Values are the mean of three replicates. Error bars, sometimes not visible due to small size, represent standard deviation of the mean.

T2 sequence (P10636 1-441 isoform P10636-8): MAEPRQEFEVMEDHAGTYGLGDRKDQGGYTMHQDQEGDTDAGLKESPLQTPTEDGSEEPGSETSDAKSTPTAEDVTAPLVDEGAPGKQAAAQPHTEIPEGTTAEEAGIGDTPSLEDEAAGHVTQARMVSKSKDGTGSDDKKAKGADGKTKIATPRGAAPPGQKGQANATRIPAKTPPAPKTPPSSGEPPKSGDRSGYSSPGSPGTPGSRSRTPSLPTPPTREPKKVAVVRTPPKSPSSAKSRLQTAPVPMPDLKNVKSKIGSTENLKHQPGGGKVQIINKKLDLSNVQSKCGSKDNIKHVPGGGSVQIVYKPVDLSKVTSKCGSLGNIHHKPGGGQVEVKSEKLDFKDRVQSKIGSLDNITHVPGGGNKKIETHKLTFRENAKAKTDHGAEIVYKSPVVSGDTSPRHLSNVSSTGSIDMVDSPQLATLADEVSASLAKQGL
T1 sequence (P05067 672-711 limits assumed): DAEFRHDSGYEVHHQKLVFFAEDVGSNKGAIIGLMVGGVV

Row | inhibition of Aβ1-40 aggregation, as measured by Thioflavin T (ThT) fluorescence (Aβ1-40) | tau aggregation in the absence of heparin inducer (tau441) | effect on tau fibrillization (ThS fluorescence) (tau441; tau441 4 or 10 μM, 50 to 100 μM compound, 5 μM ThS, heparin inducer, pH 7.4, 37° C.) | Compound
1 | dose-response effect | inhibited tau aggregation |  | O=C(O)c1ccc2[nH]cc(-c3c[nH]c4ccc(Br)cc34)c2c1 [0c, 3-(5-bromo-indol-3-yl)-indole-5-carboxylic Acid]
2 | inhibition | inhibited tau aggregation | inhibition of tau fibrillization | O=c1c(O)c(-c2ccc(O)cc2O)oc2cc(O)cc(O)c12 [morin]
